This is an account of results in publication PMC11078216, “Discovery of potent and selective activity-based probes (ABPs) for the deubiquitinating enzyme USP30” (RSC Chemical Biology, 2024).

For the test, the target named is T1, USP30 (Homo sapiens, UniProt Q70CQ3).
T1 construct: We next determined cellular engagement of endogenous USP30 with IMP-2587 or IMP-2586; endogenous in cells; host or cells: HEK293T
T1 sequence (Q70CQ3 1-517): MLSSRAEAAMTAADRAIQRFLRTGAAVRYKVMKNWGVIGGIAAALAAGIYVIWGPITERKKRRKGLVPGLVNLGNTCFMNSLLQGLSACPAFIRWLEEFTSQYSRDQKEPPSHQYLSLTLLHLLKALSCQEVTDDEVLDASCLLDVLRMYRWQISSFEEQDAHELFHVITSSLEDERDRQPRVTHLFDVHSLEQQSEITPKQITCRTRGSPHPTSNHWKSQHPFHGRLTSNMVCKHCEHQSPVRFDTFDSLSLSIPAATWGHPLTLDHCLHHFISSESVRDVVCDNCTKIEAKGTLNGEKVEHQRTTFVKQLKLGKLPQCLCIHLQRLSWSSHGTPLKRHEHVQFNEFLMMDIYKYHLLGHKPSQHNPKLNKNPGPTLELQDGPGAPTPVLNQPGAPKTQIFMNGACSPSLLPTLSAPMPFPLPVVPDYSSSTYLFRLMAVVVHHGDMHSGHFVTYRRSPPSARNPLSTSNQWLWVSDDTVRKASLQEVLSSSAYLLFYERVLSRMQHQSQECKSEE
The test can be described thus: Direct target engagement in HEK293T cells: CuAAC ligation and in-gel fluorescence. It is filed as cell-based. The note with it: for probe concentration for detection of USP30 activity in intact cells: following 1 hour incubation. The protocol: We next determined cellular engagement of endogenous USP30 with IMP-2587 or IMP-2586. […] In-cell concentration-dependent competition by IMP-2587 and IMP-2586 for USP30 were confirmed below 100 nM probe (Fig. 2b and c), whilst engagement of an exemplar unrelated DUB, UCHL1, occurred only at a much higher concentration (30 000 nM). We hypothesise that incomplete modification of USP30 by HA-Ub-VME is likely due to limited retention of USP30 activity in cell lysates, which have likely had the USP30 transmembrane domain compromised, highlighting the potential utility of a small molecule USP30 ABP applicable directly in intact cells. Direct USP30 target engagement by IMP-2587 and IMP-2586 was confirmed in HEK293T cells following 1 h probe treatment followed by cell lysis and CuAAC bio-orthogonal ligation to capture reagent azido-TAMRA-biotin (AzTB) for IMP-2587 or alkyne-TAMRA-biotin for IMP-2586 (Fig. 3a).[27] […] This unspecific background labelling is presumably due to the previously reported higher off-target CuAAC reactivity of an alkyne-bearing capture reagent, applied here due to incorporation of an azide tag in IMP-2586.[28] Moreover, the labelling of USP30 was further confirmed by biotin pulldown and immunoblotting. […]
d) Live cell probe incubation, lysate click chemistry and precipitation 6-well HEK293T cells were incubated with media containing compounds ABP 2 and ABP 4 at indicated concentrations for 1 h at 37 °C. The cells were washed with PBS and lysed with lysis buffer (50 μL (1% (v/v) Triton X-100, 0.1% (w/v) sodium dodecyl sulfate (SDS), EDTA-free complete protease inhibitor cocktail (1×, Roche) in PBS on ice for 10 min. The lysates were scraped and transferred to corresponding Lo-Bind Eppendorfs. Each lysate was sonicated for 1 minute, and the samples centrifuges at 5,000 x g at 4 °C for 5 minutes to pellet insoluble cellular debris. The supernatant was collected, and protein concentration was determined using the DC Protein Assay (Bio-Rad) as per manufacturer’s instructions, and normalised to lowest concentrated sample (e.g. 1 mg/mL, using lysis buffer). The following “click mixture” was prepared separately, preparing 6 μL for every 100 μL of […]
Capture reagent (AzRB/AzT for ABP 2, YnT/YnB for ABP 4 10 mM in DMSO, 1 vol; final concentration […]
The lysate samples (10-20 μg) were mixed with 4× Laemmli sample loading buffer (250 mM Tris -HCl pH 6.8, 30% (v/v) glycerol, 10% (w/v) SDS, 0.05% (w/v) bromophenol blue) supplemented with 20% v/v β-mercaptoethanol (BME) and boiled for 10 min at 95 °C. […] Gel were imaged on a Typhoon imager (GE Healthcare; λEx 532 nm, λEm 575 nm for TAMRA. For protein loading quantification, gels were stained with Coomassie blue staining solution overnight, rinsed with water and imaged on an ImageQuant™ […]

Setting [1] is: HEK293T, 1 h probe treatment, CuAAC to AzTB.

On to `N#CN1CC[C@@H](NC(=O)c2cc(-c3ccccc3Oc3ccc(N=[N+]=[N-])cc3)n[nH]2)C1` [IMP-2586], for which the “probe concentration for detection of USP30 activity in intact cells” value lay within 3 to 10 nM.
With `C#Cc1cccc(-c2cc(NC(=O)CC3CCN(C#N)C3)on2)c1` (stereo not shown) [IMP-2587], the “probe concentration for detection of USP30 activity in intact cells” value is 3 to 10 nM. For the same molecule, under setting [1], the “lowest probe concentration showing major band at ca. 60 kDa (in-gel fluorescence)” value came to 3 nM and the “probe concentration above which additional bands are labelled (in-gel fluorescence)” value is “above 30 nM”.
